{"source": "patent US20250009731A1", "about": "“TOLL-LIKE RECEPTOR THERAPY COMBINATIONS WITH CBL-B INHIBITOR COMPOUNDS” (NURIX THERAPEUTICS, INC., priority 2021, published 2025)", "key": {"[1]": {"tested_on": "total primary human T-cells", "assay": "IL-2 and IFN-γ release by stimulated total primary human T-cells (ELISA)", "type": "cell-based", "details": "plate bound anti-CD3, with and without CD28 co-stimulation, lesser degree without co-stimulation", "protocol": "Cells were stimulated with plate bound anti-CD3 (right) or anti-CD3/anti-CD28 (left) in presence or absence of the indicated concentration of Compound 23. Release of IL-2 or IFN-γ were assessed by ELISA. Compound 23 inhibition of Cbl-b enhanced IL-2 and IFN-γ secretion in primary human T cells stimulated with anti-CD3 antibodies, in both the presence and absence of CD28 co-stimulation, although to a lesser degree in the absence of co-stimulation."}, "CT26 tumors [2]": {"tested_on": "CT26 tumors", "assay": "CT26 colon carcinoma tumor model, tumor volume", "type": "in vivo, mice", "details": "oral 10 mg/kg or 30 mg/kg, Day 7 to Day 32; tumor volume at Day 25", "protocol": "Mice bearing tumors on their left and right flanks were treated from Day 7 to Day 32 with oral Compound 23 at 10 mg/kg or 30 mg/kg or vehicle. Volumes at Day 25 are indicated. Statistics were calculated with one-way ANOVA and Dunn's multiple comparisons test ** P<0.01."}, "4T1 tumors [3]": {"tested_on": "4T1 tumors", "assay": "4T1 triple negative mammary carcinoma metastatic model with primary tumor resection, survival", "type": "in vivo, mice", "details": "oral 30 mg/kg daily", "description": "Another in vivo study evaluated the ability of Compound 23 treatment, started before the primary tumor resection, to eradicate 4T1 breast carcinoma metastatic disease. The 4T1 triple negative mammary carcinoma is a transplantable tumor cell line that is highly tumorigenic and invasive and, unlike most tumor models, spontaneously metastasizes from a primary tumor growing in the mammary gland to multiple distant sites including lymph nodes, blood, liver, lung, brain, and bone. Tumor cells are easily transplanted into the mammary glands so that the primary tumor grows in the anatomically relevant site. The progressive spread of 4T1 metastases to other organs is very similar to that of human mammary cancer. Animals die from disseminated metastatic disease regardless of resection of the primary tumor (Pulaski et al., 2000, Current Protocols in Immunology 39(1):20.2.1-20.2.16). […] Beginning on Day 7, tumor volumes were measured twice weekly until they reached a mean tumor volume of 145 mm^3 when the primary tumors were resected on Day 14 or 15 (dotted line). Median survival times were calculated for each group and body weights were monitored until the end of the study on Day 140. Body weights were measured twice weekly then once weekly starting Day 47. […] Statistical significance of differences in conditional survival between groups was evaluated using the Log-rank (Mantel-Cox) test. […] Median survival is reported as undefined for the Compound 23 group, as survival exceeds 50% at Day 140."}, "CT26 tumors [4]": {"tested_on": "CT26 tumors", "assay": "nCounter Mouse PanCancer Immune Profiling Panel gene expression in CT26 tumors", "type": "in vivo, mice", "details": "vs vehicle", "description": "In this example, the gene expression changes induced in tumors from mice treated with Compound 23 studies were as investigated. To perform this assessment, the nCounter PanCancer Immune Profiling Panel was used, which is a multiplexed gene expression panel developed by NanoString Technologies that measures expression of 770 immune and cancer related genes (Eastel et al., 2019, Expert Review of Molecular Diagnostics, 19(7):591-598). This technology is a unique gene expression tool that covers many important features of the immune response in the tumor microenvironment and was used to facilitate the understanding of immune related changes in tumors treated with Compound 23.\nIn FIG. 4A, CT26 tumors were harvested after 4 doses and after 19 doses of Compound 23 or vehicle and gene expression was directly measured using the nCounter Mouse PanCancer Immune Profiling Panel. Analysis was performed using the nSolver 4.0 and the nCounter Advanced Analysis software comparing gene expression in Compound 23 to vehicle treated tumors. […] Statistical significance of differences in mean cell type scores between Compound 23 and vehicle treated groups was evaluated using Mann-Whitney test (* P≤0.05, ** P≤0.01, and *** P≤0.001).\n(§1) In FIG. 4B, CT26 tumors were harvested after 4 treatment doses and gene expression was directly measured using the nCounter Mouse PanCancer Immune Profiling Panel. Analysis was performed using the nSolver 4.0 and the nCounter Advanced Analysis software comparing gene expression in Compound 23 to vehicle treated tumors. As indicated in the titles above each panel, scatter plots of individual Pathway Signature Scores of vehicle and Compound 23 treated tumors are shown. Statistical significance of differences in Pathway Signature Scores between Compound 23 and vehicle treated groups was evaluated using Mann-Whitney test (* P≤0.05, ** P≤0.01, and *** P≤0.001).\nas §1, with “FIG. 4C,” for “FIG. 4B,”, “after 19” for “after 4”"}, "CT26 tumors [5]": {"tested_on": "CT26 tumors", "assay": "CT26 tumor model with depleting antibodies for CD4+, CD8+ or NK cells", "type": "in vivo, mice", "details": "30 mg/kg PO QD Day 9 to Day 25; tumor volume at Day 25", "description": "Tumor volume at Day 25 is indicated. CD8+ T-cell or NK cell depletion abrogates Compound 23 activity. Stats calculated with Mann-Whitney (Vehicle vs. Compound 23) or one-way ANOVA with Dunn's multiple comparisons test (Compound 23 vs. Depletion groups); * P≤0.05, ** P≤0.01, **** P≤0.0001 The efficacy of Compound 23 on tumors is linked to CD8+ T function and on NK cell function."}, "4T1 tumors [6]": {"tested_on": "4T1 tumors", "assay": "Flow cytometry of tumor and blood from orthotopic 4T1 tumor-bearing mice", "type": "in vivo", "description": "Tumor and blood samples were harvested on Day 28 and analyzed by Flow Cytometry."}, "CT26 tumors [7]": {"tested_on": "CT26 tumors", "assay": "Flow cytometry of tumor-infiltrating immune cells in CT26 tumors", "type": "in vivo, mice", "details": "30 mg/kg daily PO, 19 doses", "protocol": "CT26 tumors were harvested after 19 doses of Compound 23 or vehicle and tumor-infiltrating immune cell density and phenotype was assessed by Flow Cytometry."}}, "data": [{"compound": "C[C@H]1CCCN(Cc2cc3c(c(C(F)(F)F)c2)CN(c2cccc([C@]4(c5nncn5C)C[C@@H](C)C4)c2)C3=O)C1", "note": "[Compound 23]", "values": [{"measurement": "IFN-γ secretion", "setting": "[1]", "value": "enhanced"}, {"measurement": "IL-2 secretion", "setting": "[1]", "value": "enhanced"}, {"measurement": "anti-tumor activity, CT26 colon carcinoma model", "setting": "CT26 tumors [2]", "value": "significant anti-tumor activity"}, {"measurement": "survival at Day 140", "setting": "4T1 tumors [3]", "value": "exceeds 50%"}, {"measurement": "anti-tumor activity, metastatic triple negative breast tumor model 4T1", "setting": "4T1 tumors [3]; Day 8 to Day 46", "value": "significant anti-tumor activity"}, {"measurement": "median survival time compared to vehicle control", "setting": "4T1 tumors [3]; Day 8 to Day 46, primary tumor resected Day 14 or 15, Log-rank test", "value": "significantly increased"}, {"measurement": "mice that remained tumor free until the end of the study", "setting": "4T1 tumors [3]; Day 140", "value": 54, "unit": "%"}, {"measurement": "median survival", "setting": "4T1 tumors [3]; study end Day 140", "value": "undefined"}, {"measurement": "cytotoxic cells score", "setting": "CT26 tumors [4]; after 4 doses, oral 30 mg/kg daily, P=0.1061", "value": "clear trend of increased infiltration"}, {"measurement": "tumor infiltrating lymphocytes (TIL) score", "setting": "CT26 tumors [4]; after 4 doses, oral 30 mg/kg daily, P=0.6679", "value": "clear trend of increased infiltration"}, {"measurement": "T-cell score", "setting": "CT26 tumors [4]; after 4 doses, oral 30 mg/kg daily, P=0.7551", "value": "clear trend of increased infiltration"}, {"measurement": "pathway scores of innate immune signaling: dendritic cell function, macrophage function, chemokine receptors and pathways", "setting": "CT26 tumors [4]; after 4 doses", "value": "significant gene expression changes"}, {"measurement": "pathway scores of T-cell, B cell, NK cell and adaptive immune function", "setting": "CT26 tumors [4]; after 4 doses, trend for increases", "value": "not significant"}, {"measurement": "cytotoxic cell score", "setting": "CT26 tumors [4]; after 19 doses, oral, P=0.0002", "value": "significant increases"}, {"measurement": "tumor infiltrating lymphocytes (TIL) score", "setting": "CT26 tumors [4]; after 19 doses, oral, P=0.0044", "value": "significant increases"}, {"measurement": "T-cell score", "setting": "CT26 tumors [4]; after 19 doses, oral, P=0.0098", "value": "significant increases"}, {"measurement": "immune related pathway scores: dendritic cell, macrophage, T-cell, NK cell, B cell, interferon function, adaptive immunity, chemokine and receptor, cytokine and receptor", "setting": "CT26 tumors [4]; after 19 doses", "value": "significantly enhanced function"}, {"measurement": "effect of CD8+ T-cell depletion on antitumor activity", "setting": "CT26 tumors [5]", "value": "abrogates"}, {"measurement": "effect of NK cell depletion (anti-asialo-GM1) on antitumor activity", "setting": "CT26 tumors [5]", "value": "abrogates"}, {"measurement": "frequency of tumor gp70 antigen-specific CD8+ T-cells (AH1 Dextramer+ CD8+ T-cells) in 4T1 tumors", "setting": "4T1 tumors [6]; 30 mg/kg daily PO Day 9 to Day 28, FIG. 6A", "value": "increased"}, {"measurement": "frequency of gp70 antigen-specific CD8+ T-cells with exhaustion phenotype (PD-1+ LAG3+) in 4T1 tumors", "setting": "4T1 tumors [6]; 30 mg/kg daily PO Day 9 to Day 28, FIG. 6B", "value": "decreased"}, {"measurement": "frequency of circulating CD8+ T-cells with activated phenotype (PD-1+) in blood", "setting": "4T1 tumors [6]; 30 mg/kg daily PO Day 9 to Day 28, FIG. 6C", "value": "increased"}, {"measurement": "frequency of circulating CD8+ T-cells with memory phenotype (CD44+CD27+CD127+) in blood", "setting": "4T1 tumors [6]; 30 mg/kg daily PO Day 9 to Day 28, FIG. 6D", "value": "increased"}, {"measurement": "number of tumor-infiltrating leukocytes (TIL) per gram of tumor", "setting": "CT26 tumors [7]; FIG. 7A", "value": "increased"}, {"measurement": "frequency of total CD3+ T cells as a percentage of CD45+ leukocytes", "setting": "CT26 tumors [7]; FIG. 7B", "value": "increased"}, {"measurement": "frequency of total CD8+ T cells as a percentage of CD45+ leukocytes", "setting": "CT26 tumors [7]; FIG. 7C", "value": "increased"}, {"measurement": "number of total CD8+ T-cells per gram of tumor", "setting": "CT26 tumors [7]; FIG. 7D", "value": "increased"}, {"measurement": "frequency of CD8+ T-cells that express the activation marker CD29 (CD29+)", "setting": "CT26 tumors [7]; FIG. 7E", "value": "increased"}, {"measurement": "CD8+ T-cells to Tregs ratio", "setting": "CT26 tumors [7]; FIG. 7F", "value": "increased"}, {"measurement": "CD8+ effector T-cells (PD1+) to Tregs ratio", "setting": "CT26 tumors [7]; FIG. 7G", "value": "increased"}, {"measurement": "frequency of activated NK cells (CD11b+) that express Granzyme+", "setting": "CT26 tumors [7]; FIG. 7H", "value": "increased"}, {"measurement": "frequency of activated NK cells (CD27+CD11 b+) that express Granzyme+", "setting": "CT26 tumors [7]; FIG. 7I", "value": "increased"}]}]}
